{"source": "patent US10966995B2", "about": "“Use of secoisolariciresinol diglucosides (SDGS) and related compounds for protection against radiation and chemical damage” (THE TRUSTEES OF THE UNIVERSITY OF PENNSYLVANIA, priority 2014, dated 2021)", "key": {"mouse epithelial cells": {"system": "mouse epithelial cells", "experiment": "BaP-induced ROS generation (redox-sensitive fluorescence dye)", "type": "cell-based", "conditions": "10 or 20 μM BaP; 0.1-5 μM SDG; 2 hours", "procedure": "Exposure of murine epithelial cells to the tobacco and environmental carcinogen benzo-alpha-pyrene (BaP) induces damaging reactive oxygen species (ROS) as detected by a redox-sensitive fluorescence dye (FIG. 23). As early as 2 hours, post exposure to the carcinogen, a robust increase of fluorescence intensity indicates ROS generation in cells."}, "human epithelial cells [1]": {"system": "human epithelial cells", "experiment": "BaP-induced DNA adduct formation", "type": "cell-based", "conditions": "given alone or in combination", "source_text": "(§1) Similarly, SDG prevents genotoxic stress in human epithelial cells exposed to BaP. Exposure of cells to a potent carcinogen such as BaP, induces genotoxic stress as indicated by increased levels of p53 protein (FIG. 25). […] SDG also prevents oxidative DNA damages in human epithelial cells exposed to BaP. Exposure of cells to a potent carcinogen such as BaP, induces oxidative DNA damage as indicated by increased levels of gamma-H2AX, a marker for double-stranded DNA breaks (FIG. 26). […] Furthermore, SDG prevents DNA adduct formation in human epithelial cells exposed to BaP. Exposure of cells to a potent carcinogen such as BaP, induces the formation of DNA adducts (FIG. 27). DNA adducts are pieces of DNA covalently linked to a carcinogen and is directly linked to the development of malignancy. The DNA adduct levels is decreased by the presence of SDG or its metabolites ED and EL given alone or in combination."}, "[2]": {"system": "murine primary lung fibroblasts", "experiment": "γ-H2AX foci immunostaining, fibroblasts", "type": "cell-based, mouse", "conditions": "SDG 50 μM 6 h prior IR; 2 Gy; irradiated control 30.0% at 30 min", "procedure": "(§2) Fibroblasts and endothelial cells were isolated from C57/bl6 mouse. For fibroblast isolation, mouse lungs were harvested, minced, and incubated with dispase (2 mg/ml) for 45 minutes. Pieces were plated out and fibroblasts were cultured as described previously and used between passages 3 and 10. Pulmonary microvascular endothelial cells (PMVEC) were isolated from murine lungs as described previously. Briefly, freshly harvested mouse lungs were treated with collagenase followed by isolation of cells by adherence to magnetic beads coated with mAb to platelet endothelial cell adhesion molecule (PECAM). Epithelial cells (C10) cells were originally derived from a normal BALB/c mouse lung explant and are non-tumorigenic, contact-inhibited, and have alveolar type 2 cell features at early passage.\nFor immunostaining of γ-H2AX, cells were plated on glass coverslips (5,000 cells/coverslip), pre-treated (6 h) with 50 μM SDG and irradiated (2 Gy). At desired time interval, cells were fixed (4% para-formaldehyde), washed and blocked with PBST (PBS+0.1% TritonX-100 containing 5% goat serum, 1% BSA). Cells were incubated with γ-H2AX primary antibody (1:200) overnight at 4° C. followed by washing with PBST (3×5 min) and incubation with secondary antibody (Alexa Fluor® 488, Invitrogen, Calif., USA) for 1 hr at RT. Nuclei were counterstained with DAPI and visualized under fluorescence microscope."}, "plasmid DNA": {"system": "plasmid DNA", "experiment": "Hypochlorite-induced damage to plasmid DNA", "type": "biochemical", "conditions": "SDG 25 μM; 4.5 mM HOCl", "procedure": "Calf thymus or plasmid DNA was incubated with hypochlorite for 2 hrs at 37° C. DNA samples were subjected to agarose (1%) gel electrophoresis and analyzed."}, "[3]": {"system": "murine primary lung epithelial cells", "experiment": "Morphological detection of apoptotic cells, epithelial cells", "type": "cell-based, mouse", "conditions": "SDG 50 μM pre-treatment; irradiated; 24 h; IR alone 13.9%", "procedure": "as §2, with “Epithelial cells (C10) cells were originally derived from a normal BALB/c mouse lung explant and are non-tumorigenic, contact-inhibited, and have alveolar type 2 cell features at early passage.” left out\nApoptotic cells are morphologically characterized by condensation of nucleus and cytoplasm, membrane blebbing, cell shrinkage, and breakdown of nuclear DNA, first in large segments and subsequently in nucleosomal fragments and finally formation of well-enclosed apoptotic bodies. Percentage of cells undergoing apoptosis was determined microscopically from the slides used for micronuclei detection (cytogenetic damage). At least, 500 cells were counted for each experiment (experiment done twice) and percent apoptotic cells were determined as follows: % Cell Death=Na/Nt×100, where Na is the number of cells with apoptotic bodies and Nt is the total number of cells analyzed. Gene Expression Analysis by Quantitative Real Time PCR (qPCR)"}, "human epithelial cells [4]": {"system": "human epithelial cells", "experiment": "BaP-induced oxidative DNA damage (gamma-H2AX levels)", "type": "cell-based", "conditions": "SDG 5, 10, 25, 50 and 100 μM", "source_text": "as §1"}, "human mesothelial cells": {"system": "human mesothelial cells", "experiment": "Asbestos-induced ROS (DCF fluorescence) in human mesothelial cells", "type": "cell-based", "conditions": "asbestos 10 μg crocidolite/cm^2 or H2O2 100 μM; SDG 50 μM", "procedure": "SDG blunts asbestos-induced ROS secretion by human mesothelial cells in vitro (FIG. 50). Experimental plan for detecting asbestos-induced ROS in cells: (human mesothelial) HM cells or mouse macrophages plated in 20% DMEM for 24 hours; Added 20 μM DCF in HBSS for 1 hour; Supernatant replaced with 1% DMEM containing H2O2 (100 μM), asbestos (10 μg crocidolite/cm^2) and/or SDG (50 μM); and Fluorescence level monitored up to 36 hours post-initiation of asbestos exposure."}}, "data": [{"compound": "COc1cc(C[C@@H](CO[C@@H]2O[C@H](CO)[C@@H](O)[C@H](O)[C@H]2O)[C@H](CO[C@@H]2O[C@H](CO)[C@@H](O)[C@H](O)[C@H]2O)Cc2ccc(O)c(OC)c2)ccc1O", "note": "[SDG, secoisolariciresinol diglucoside]", "values": [{"measurement": "ROS", "setting": "mouse epithelial cells", "result": "negligible levels"}, {"measurement": "DNA adduct levels", "setting": "human epithelial cells [1]", "result": "decreased"}, {"measurement": "γ-H2AX positive cells", "setting": "[2]", "result": "22.1%±1.9"}, {"measurement": "Open coiled (OC) form of plasmid DNA", "setting": "plasmid DNA", "result": "18.6%±9.4"}, {"measurement": "Super coiled (SC) form of plasmid DNA", "setting": "plasmid DNA", "result": "81.3%±9.4"}, {"measurement": "Apoptotic cells", "setting": "[3]", "result": "9.9%±1.08"}, {"measurement": "gamma-H2AX levels", "setting": "human epithelial cells [4]", "result": "mitigated dose-dependently"}, {"measurement": "ROS levels", "setting": "human mesothelial cells", "result": "significantly lowers ROS levels to baseline levels"}]}]}
